In article PMC9838390, “Discovery and biosynthesis of karnamicins as angiotensin converting enzyme inhibitors” (Nature Communications, 2023):
“And” between values parts separate entries of the source, which are not always exact repeats. Identical values can stand only once.

Columns and labels:
Type in all cases: biochemical, L. rhizosphaerae NEAU-A2
[1] = test system: KnmB2; test: Hydrogen peroxide formation assay of KnmB2 and variants
Protocol: (§1) Hydrogen peroxide formation assay and NADPH oxidation
(§2) The hydrogen peroxide formed from KnmB1, KnmB2 and their variants were measured using the Hydrogen Peroxide Assay Kit (Beyotime Industrial Co. Ltd, Shanghai, China)4-5. 5–100 µL of enzyme reaction mixture was added to 100 µL of working reagent (S0038-1). The mixture was incubated for 30 min at 25 °C, at which time the absorbance at 560 nm was measured by NanoDrop 2000c (Fisher Scientific). […]
(§3) Spectral data for new compounds […]
Supplementary Figure 131. H2O2 generation and NADPH oxidation for KnmB2, KnmB1 and their variants. (a) Hydrogen peroxide formation of KnmB2 and variants. […]
(1 picture or pasted object on this page, not shown here) […]
(§4) H2O2 generation for KnmB2 and variants in the presence 24 or 32. Reaction conditions (h-j) for KnmB2 and their variants: 50 mM Tris-HCl buffer (pH 7.5), 0.15 mM NADPH, 2 μM KnmB2 or variants, or 0.1 mM substrate 24/32. Values are the means ± SD of n = 3 independent experiments, except for KnmB2+24 (T = 40 min), KnmB2-N219D+24 (T = 4 min), KnmB2-Y215F+24 (T= 1 min and 3 min) in i and j, and KnmB2+32 (T= 8 min) in j (n = 2). Source data are provided as a Source Data file. […]

[2] = test system: KnmB1; test: NADPH oxidation of KnmB1 and variants (340 nm); details: KnmB1 + compound
Protocol: Hydrogen peroxide formation assay and NADPH oxidation […]
(§5) NADPH detection was carried out in the cuvette by NanoDrop 2000c (Fisher Scientific). NADPH signal at 340 nm was monitored in time using 6220 M–1 cm–1 as […]
as §3
Reaction conditions: 50 mM Tris-HCl buffer (pH 7.5), 0.15 mM NADPH, and 2 μM KnmB1 or KnmB2. (e) NADPH oxidation of KnmB1 and variants. (f) NADPH oxidation of KnmB1 in the presence 24/32/36. (g) NADPH oxidation of KnmB1 and variants in the presence 24. Reaction conditions (e-g) for KnmB1 and their variants: 50 mM Tris-HCl buffer (pH 7.5), 0.15 mM NADPH, and 6 μM KnmB1 or variants, or 0.1 mM substrate 24/32/36. […]
2 μM KnmB2 or variants, or 0.1 mM substrate 24/32. […]
Source data are provided as a Source Data file. […]

[3] = test system: KnmB2; test: NADPH oxidation of KnmB2 and variants (340 nm)
Protocol: as §1
as §2, with “Scientific). The level of H2O2 was calculated according to a standard concentration curve from standard” for “Scientific).”
as §5, §3
Reaction conditions: 50 mM Tris-HCl buffer (pH 7.5),
0.15 mM NADPH, and 2 μM KnmB1 or KnmB2. […]
as §4, with “μM KnmB1 or variants, or 0.1 mM substrate 24/32/36. (h) NADPH oxidation of KnmB2 and variants. (i) NADPH oxidation of KnmB2 and variants in the presence 24 or 32. (j) H2O2” for “H2O2”

For `COc1cc(C(N)=O)nc(-c2csc(CCCCC(C)C)n2)c1` [Compound 32], the “hydrogen peroxide formation of KnmB2 (absorbance UV λ=560 nm), average value” ([1]; Fig. S131a, 1 mM NADPH, 16 μM KnmB2, 0.1 mM compound, 30 °C, 3 h, average of 3) was 0.3257, the “H2O2 generation, average value” ([1]; KnmB2+32, Time 0) was 0.0000 µM and the “H2O2 generation, average value” ([1]; KnmB2+32, Time 1) was 27.0071 µM. For the same molecule, the “H2O2 generation, average value” ([1]; KnmB2+32, Time 2) was 45.8172 µM, the “H2O2 generation, average value” ([1]; KnmB2+32, Time 3) was 50.8645 µM and the “H2O2 generation, average value” ([1]; KnmB2+32, Time 4) was 59.9799 µM. For the same molecule, the “H2O2 generation, average value” ([1]; KnmB2+32, Time 5) was 63.9929 µM, the “H2O2 generation, average value” ([1]; KnmB2+32, Time 8) was 70.1572 µM and the “H2O2 generation, average value” ([1]; KnmB2+32, Time 10) was 68.2817 µM. The “H2O2 generation, average value” ([1]; KnmB2+32, Time 15) was 68.3920 µM, the “H2O2 generation, average value” ([1]; KnmB2+32, Time 20) was 65.9649 µM and the “H2O2 generation, average value” ([1]; KnmB2+32, Time 30) was 69.8125 µM. For the same molecule, the “H2O2 generation, average value” ([1]; KnmB2+32, Time 60) was 64.9169 µM, the “NADPH oxidation of KnmB1 in the presence of compound (replicates 1, 2, 3)” value (from here on “NADPH oxidation of KnmB1 … (replicates 1, 2, 3)”) ([2]; Time 0) was 0.0000 µM and the “NADPH oxidation of KnmB1 in the presence of compound, average value” (from here on “NADPH oxidation of KnmB1 … average value”) ([2]; Time 0) was 0.0000 µM. For the same molecule, the “NADPH oxidation of KnmB1 … (replicates 1, 2, 3)” value ([2]; Time 1) was 1.5273 µM and 2.1061 µM and 2.0418 µM, the “NADPH oxidation of KnmB1 … average value” ([2]; Time 1) was 1.8918 µM and the “NADPH oxidation of KnmB1 … (replicates 1, 2, 3)” value ([2]; Time 2) was 1.8328 µM and 3.1029 µM and 1.2701 µM. For the same molecule, the “NADPH oxidation of KnmB1 … average value” ([2]; Time 2) was 2.0686 µM, the “NADPH oxidation of KnmB1 … (replicates 1, 2, 3)” value ([2]; Time 3) was 2.5241 µM and 3.7621 µM and 2.2026 µM and the “NADPH oxidation of KnmB1 … average value” ([2]; Time 3) was 2.8296 µM. The “NADPH oxidation of KnmB1 … (replicates 1, 2, 3)” value ([2]; Time 4) was 3.7781 µM and 5.3698 µM and 2.4759 µM, the “NADPH oxidation of KnmB1 … average value” ([2]; Time 4) was 3.8746 µM and the “NADPH oxidation of KnmB1 … (replicates 1, 2, 3)” value ([2]; Time 5) was 4.0032 µM and 5.5627 µM and 2.3955 µM. The “NADPH oxidation of KnmB1 … average value” ([2]; Time 5) was 3.9871 µM, the “NADPH oxidation of KnmB1 … (replicates 1, 2, 3)” value ([2]; Time 8) was 4.4212 µM and 7.7974 µM and 3.6978 µM and the “NADPH oxidation of KnmB1 … average value” ([2]; Time 8) was 5.3055 µM. For the same molecule, the “NADPH oxidation of KnmB1 … (replicates 1, 2, 3)” value ([2]; Time 10) was 5.8360 µM and 8.6174 µM and 5.4019 µM, the “NADPH oxidation of KnmB1 … average value” ([2]; Time 10) was 6.6184 µM and the “NADPH oxidation of KnmB1 … (replicates 1, 2, 3)” value ([2]; Time 15) was 7.9100 µM and 11.8971 µM and 10.3055 µM. The “NADPH oxidation of KnmB1 … average value” ([2]; Time 15) was 10.0375 µM, the “NADPH oxidation of KnmB1 … (replicates 1, 2, 3)” value ([2]; Time 20) was 9.0836 µM and 14.3891 µM and 16.4148 µM and the “NADPH oxidation of KnmB1 … average value” ([2]; Time 20) was 13.2958 µM. For the same molecule, the “NADPH oxidation of KnmB1 … (replicates 1, 2, 3)” value ([2]; Time 30) was 13.7942 µM and 22.5402 µM and 24.0193 µM, the “NADPH oxidation of KnmB1 … average value” ([2]; Time 30) was 20.1179 µM and the “NADPH oxidation of KnmB1 … (replicates 1, 2, 3)” value ([2]; Time 40) was 17.5724 µM and 28.7299 µM and 26.9936 µM. For the same molecule, the “NADPH oxidation of KnmB1 … average value” ([2]; Time 40) was 24.4319 µM, the “NADPH oxidation of KnmB1 … (replicates 1, 2, 3)” value ([2]; Time 60) was 24.1801 µM and 36.1576 µM and 36.4791 µM and the “NADPH oxidation of KnmB1 … average value” ([2]; Time 60) was 32.2722 µM. For the same molecule, the “stimulation of the reaction of KnmB2 with NADPH” value ([3]; 0.15 mM NADPH, 2 μM KnmB2, 0.1 mM compound (Fig. S131i, j)) was “could dramatically stimulate the reaction of KnmB2 with NADPH”, the “NADPH oxidation, average value” ([3]; KnmB2+32, Time 0) was 0.0000 µM and the “NADPH oxidation, average value” ([3]; KnmB2+32, Time 1) was 36.1736 µM. The “NADPH oxidation, average value” ([3]; KnmB2+32, Time 2) was 67.6313 µM, the “NADPH oxidation, average value” ([3]; KnmB2+32, Time 3) was 89.9250 µM and the “NADPH oxidation, average value” ([3]; KnmB2+32, Time 4) was 104.0193 µM. For the same molecule, the “NADPH oxidation, average value” ([3]; KnmB2+32, Time 5) was 113.9871 µM, the “NADPH oxidation, average value” ([3]; KnmB2+32, Time 8) was 126.0986 µM and the “NADPH oxidation, average value” ([3]; KnmB2+32, Time 10) was 129.3140 µM. For the same molecule, the “NADPH oxidation, average value” ([3]; KnmB2+32, Time 15) was 133.2797 µM, the “NADPH oxidation, average value” ([3]; KnmB2+32, Time 20) was 134.8875 µM and the “NADPH oxidation, average value” ([3]; KnmB2+32, Time 30) was 135.6377 µM. The “NADPH oxidation, average value” ([3]; KnmB2+32, Time 60) was 137.7278 µM.
